Measured values published in patent US20120028929A1, “TETRACYCLINE STABILIZING FORMULATIONS” (ALACRITY BIOSCIENCE, INC., priority 2008, published 2012).
Where “and” joins values, the source holds several entries; their conditions need not be identical. Identical values can stand only once. Values belong to the compound of their own block, whether it stands above or below them.

Key:
[1] = previous studies; cited from earlier work
[2] = Combinatorial effect of antioxidants and tonicity adjustment agents in doxycycline stability; format: physicochemical; conditions: for doxycycline stability 5 Wks / doxycycline stability 8 Wks / doxycycline stability 12 Wks / doxycycline stability 2 Wks / doxycycline stability Init.: HPMC
Source text: (§1) Standard methods known in the art are used for monitoring the degradation of tetracycline into its epimers or degradation products. For example, one method for monitoring tetracycline degradation is an analytical technique using chromatography, e.g. high pressure liquid chromatography (HPLC), to separate the various degradants, e.g. epimers and other degradants, and a sensitive detector to identify and quantify the concentrations of the drug and degradants over time.

[3] = Multi-dimensional parametric testing of doxycycline stability in aqueous solution; format: physicochemical; conditions: for doxycycline stability t = 0 / doxycycline stability 2 wks / doxycycline stability 4 wks: 250 μg/mL; for degradation: 2 weeks
Source text: as §1
A multi-dimensional parametric test on doxycycline stability was conducted to study the effect of pH, storage temperature and the presence of various chemical agents.

[4] = format: physicochemical
Protocol: The rate of doxycycline epimerization increased with temperature and time (see Table 7). […] Long-term storage (more than 18 months) should therefore be at refrigeration temperatures (2-8° C.) to minimize conversion of doxycycline to its epimers.
After 12 months of storage at 5° C., about 0.0014% w/w of the doxycycline in solution was lost to degradation. That is, original doxycyline concentration was 0.025% w/w and concentration after 12 months was 0.0236% w/w, corresponding to 94.4% Label Claim (LC).
The epimerization of doxycycline into 4-epidoxycycline is reversible, and the rate of 4-epidoxycycline formation is related to the kinetic equilibrium between the two compounds. Therefore, one method for specifically reducing the rate of doxycycline epimerization into 4-epidoxycycline is to fortify the formulation with 4-epidoxycycline.

[5] = Edetate Disodium 0.1%, Sodium Metabisulfite 0.1%, Sodium Thiosulfate 0.2%, Glycerin (167 mOsm/kg), 5° C.
[6] = Edetate Disodium 0.1%, Sodium Metabisulfite 0.1%, Sodium Thiosulfate 0.2%, Glycerin (167 mOsm/kg), 25° C.
[7] = Edetate Disodium 0.2%, Sodium Metabisulfite 0.2%, Sodium Thiosulfate 0.3%, Glycerin (287 mOsm/kg), 5° C.
[8] = Edetate Disodium 0.2%, Sodium Metabisulfite 0.2%, Sodium Thiosulfate 0.3%, Glycerin (287 mOsm/kg), 25° C.
[9] = Edetate Disodium 0.2%, Sodium Metabisulfite 0.2%, Sodium Thiosulfate 0.3%, Glycerin (287 mOsm/kg), 40° C.
[10] = Edetate Disodium 0.2%, Sodium Metabisulfite 0.2%, Sodium Thiosulfate 0.3%, NaCl (330 mOsm/kg), 5° C.
[11] = Disodium Edetate, pH 5.3, 5° C.
[12] = Disodium Edetate, pH 5.3, 25° C.
[13] = Sodium Metabisulfite, pH 5.3, 5° C.
[14] = Sodium Metabisulfite, pH 5.3, 25° C.
[15] = Sodium Thiosulfate, pH 5.3, 5° C.
[16] = Sodium Thiosulfate, pH 5.3, 25° C.

Structure (SMILES): C[C@H]1c2cccc(O)c2C(O)=C2C(=O)[C@]3(O)C(O)=C(C(N)=O)C(=O)[C@H](N(C)C)[C@@H]3[C@@H](O)[C@@H]21 [4-epidoxycycline]
function as an antibiotic [1]: does not function as an antibiotic

degradation ([2]; 0.025% w/w doxycycline, edetate, metabisulfite, thiosulfate, phosphate-citrate buffer, glycerin, pH 5.2-5.8, 12 weeks at 5° C.): no detectable degradation | doxycycline stability 5 Wks [2, 5]: 102.8% | doxycycline stability 8 Wks [2, 5]: 100.6% | doxycycline stability 12 Wks [2, 5]: 99.4% | doxycycline stability 5 Wks [2, 6]: 97.0% | doxycycline stability 8 Wks [2, 6]: 90.4% | doxycycline stability 12 Wks [2, 6]: 85.1% | doxycycline stability 5 Wks ([2]; Edetate Disodium 0.1%, Sodium Metabisulfite 0.1%, Sodium Thiosulfate 0.2%, Glycerin (167 mOsm/kg), 40° C.): 58.2% | doxycycline stability 5 Wks ([2]; Edetate Disodium 0.1%, Sodium Metabisulfite 0.1%, Sodium Thiosulfate 0.2%, NaCl (325 mOsm/kg), 5° C.): 103.6% | doxycycline stability 5 Wks ([2]; Edetate Disodium 0.1%, Sodium Metabisulfite 0.1%, Sodium Thiosulfate 0.2%, NaCl (325 mOsm/kg), 25° C.): 96.6% | doxycycline stability 5 Wks ([2]; Edetate Disodium 0.1%, Sodium Metabisulfite 0.1%, Sodium Thiosulfate 0.2%, NaCl (325 mOsm/kg), 40° C.): 55.8% | doxycycline stability 5 Wks ([2]; Edetate Disodium 0.1%, Sodium Metabisulfite 0.1%, Glycerin (138 mOsm/kg), 5° C.): 94.6% | doxycycline stability 5 Wks ([2]; Edetate Disodium 0.1%, Sodium Metabisulfite 0.1%, Glycerin (138 mOsm/kg), 25° C.): 84.9% | doxycycline stability 5 Wks ([2]; Edetate Disodium 0.1%, Sodium Metabisulfite 0.1%, Glycerin (138 mOsm/kg), 40° C.): 47.1% | doxycycline stability 5 Wks ([2]; Edetate Disodium 0.1%, Sodium Metabisulfite 0.1%, NaCl (305 mOsm/kg), 5° C.): 90.6% | doxycycline stability 5 Wks ([2]; Edetate Disodium 0.1%, Sodium Metabisulfite 0.1%, NaCl (305 mOsm/kg), 25° C.): 81.8% | doxycycline stability 5 Wks ([2]; Edetate Disodium 0.1%, Sodium Metabisulfite 0.1%, NaCl (305 mOsm/kg), 40° C.): 46.5% | doxycycline stability 2 Wks [2, 7]: 103.0% | doxycycline stability 5 Wks [2, 7]: 101.2% | doxycycline stability 8 Wks [2, 7]: 100.6% | doxycycline stability 12 Wks [2, 7]: 100.4% | doxycycline stability Init. [2, 7]: 103.2% | doxycycline stability 2 Wks [2, 8]: 101.0% | doxycycline stability 5 Wks [2, 8]: 93.3% | doxycycline stability 8 Wks [2, 8]: 85.2% | doxycycline stability 12 Wks [2, 8]: 84.8% | doxycycline stability 2 Wks [2, 9]: 80.3% | doxycycline stability 5 Wks [2, 9]: 55.1% | doxycycline stability 2 Wks [2, 10]: 103.0% | doxycycline stability Init. [2, 10]: 103.4% | doxycycline stability 2 Wks ([2]; Edetate Disodium 0.2%, Sodium Metabisulfite 0.2%, Sodium Thiosulfate 0.3%, NaCl (330 mOsm/kg), 25° C.): 100.6% | doxycycline stability 2 Wks ([2]; Edetate Disodium 0.2%, Sodium Metabisulfite 0.2%, Sodium Thiosulfate 0.3%, NaCl (330 mOsm/kg), 40° C.): 79.9% | doxycycline stability t = 0 ([3]; Disodium Edetate, pH 5.3): 100% | doxycycline stability 2 wks [3, 11]: 99% | doxycycline stability 4 wks [3, 11]: 96% | doxycycline stability 2 wks [3, 12]: 97% | doxycycline stability 4 wks [3, 12]: 88% | doxycycline stability 2 wks ([3]; Disodium Edetate, pH 5.3, 40° C.): 24% | doxycycline stability t = 0 ([3]; Disodium Edetate, pH 7): 100% | doxycycline stability 2 wks ([3]; Disodium Edetate, pH 7, 5° C.): 96% | doxycycline stability 2 wks ([3]; Disodium Edetate, pH 7, 25° C.): 55% | doxycycline stability 2 wks ([3]; Disodium Edetate, pH 7, 40° C.): 4% | doxycycline stability t = 0 ([3]; None (no antioxidant/chelating agent), pH 5.3): 100% | doxycycline stability 2 wks ([3]; None, pH 5.3, 5° C.): 96% | doxycycline stability 4 wks ([3]; None, pH 5.3, 5° C.): 93% | doxycycline stability 2 wks ([3]; None, pH 5.3, 25° C.): 73% | doxycycline stability 4 wks ([3]; None, pH 5.3, 25° C.): 59% | doxycycline stability 2 wks ([3]; None, pH 5.3, 40° C.): 19% | doxycycline stability t = 0 ([3]; None, pH 7): 100% | doxycycline stability 2 wks ([3]; None, pH 7, 5° C.): 94% | doxycycline stability 2 wks ([3]; None, pH 7, 25° C.): 49% | doxycycline stability 2 wks ([3]; None, pH 7, 40° C.): 11% | doxycycline stability t = 0 ([3]; Sodium Bisulfite, pH 5.3): 100% | doxycycline stability 2 wks ([3]; Sodium Bisulfite, pH 5.3, 5° C.): 88% | doxycycline stability 2 wks ([3]; Sodium Bisulfite, pH 5.3, 25° C.): 72% | doxycycline stability 2 wks ([3]; Sodium Bisulfite, pH 5.3, 40° C.): 57% | doxycycline stability t = 0 ([3]; Sodium Bisulfite, pH 7): 100% | doxycycline stability 2 wks ([3]; Sodium Bisulfite, pH 7, 5° C.): 91% | doxycycline stability 2 wks ([3]; Sodium Bisulfite, pH 7, 25° C.): 83% | doxycycline stability 2 wks ([3]; Sodium Bisulfite, pH 7, 40° C.): 48% | doxycycline stability t = 0 ([3]; Sodium Metabisulfite, pH 5.3): 100% | doxycycline stability 2 wks [3, 13]: 99% | doxycycline stability 4 wks [3, 13]: 97% | doxycycline stability 2 wks [3, 14]: 92% | doxycycline stability 4 wks [3, 14]: 90% | doxycycline stability 2 wks ([3]; Sodium Metabisulfite, pH 5.3, 40° C.): 59% | doxycycline stability t = 0 ([3]; Sodium Metabisulfite, pH 7): 100% | doxycycline stability 2 wks ([3]; Sodium Metabisulfite, pH 7, 5° C.): 97% | doxycycline stability 2 wks ([3]; Sodium Metabisulfite, pH 7, 25° C.): 86% | doxycycline stability 2 wks ([3]; Sodium Metabisulfite, pH 7, 40° C.): 51% | doxycycline stability t = 0 ([3]; Sodium Thiosulfate, pH 5.3): 100% | doxycycline stability 2 wks [3, 15]: 99% | doxycycline stability 4 wks [3, 15]: 99% | doxycycline stability 2 wks [3, 16]: 95% | doxycycline stability 4 wks [3, 16]: 93% | doxycycline stability 2 wks ([3]; Sodium Thiosulfate, pH 5.3, 40° C.): 67% | doxycycline stability t = 0 ([3]; Sodium Thiosulfate, pH 7): 100% | doxycycline stability 2 wks ([3]; Sodium Thiosulfate, pH 7, 5° C.): 96% | doxycycline stability 2 wks ([3]; Sodium Thiosulfate, pH 7, 25° C.): 91% | doxycycline stability 2 wks ([3]; Sodium Thiosulfate, pH 7, 40° C.): 7% | doxycycline stability t = 0 ([3]; Thiourea, pH 5.3): 100% | doxycycline stability 2 wks ([3]; Thiourea, pH 5.3, 5° C.): 98% | doxycycline stability 2 wks ([3]; Thiourea, pH 5.3, 25° C.): 80% | doxycycline stability 2 wks ([3]; Thiourea, pH 5.3, 40° C.): 22% | doxycycline stability t = 0 ([3]; Thiourea, pH 7): 100% | doxycycline stability 2 wks ([3]; Thiourea, pH 7, 5° C.): 98% | doxycycline stability 2 wks ([3]; Thiourea, pH 7, 25° C.): 74% | doxycycline stability 2 wks ([3]; Thiourea, pH 7, 40° C.): 9% | degradation ([3]; aqueous solution, neutral pH, 5° C., no additive): 6% | degradation ([3]; aqueous solution, neutral pH, room temperature (RT), no additive): 51% | degradation ([3]; aqueous solution, neutral pH, room temperature (RT), no additive, listed as doxcycline): about 51% | degradation ([3]; pH 5.3, RT, addition of edetate disodium): 3% | degradation ([3]; pH 5.3, RT, addition of sodium bisulfate): 28% | degradation ([3]; pH 5.3, RT, addition of sodium metabisulfite): 8% | degradation ([3]; pH 5.3, RT, addition of sodium thiosulfate): 5% | degradation ([3]; pH 5.3, RT, addition of thiourea): 20% | degradation ([3]; pH 5.3, RT, no additive): 28% and 27% | share of degradation by epimerization into 4-epidoxycycline [4]: over half of the degradation | doxycycline in solution lost to degradation ([4]; 12 months, 0.025 % w/w): about 0.0014 % w/w
Structure (SMILES): C[C@H]1c2cccc(O)c2C(=O)C2=C(O)[C@]3(O)C(=O)C(C(N)=O)=C(O)[C@@H](N(C)C)[C@@H]3[C@@H](O)[C@@H]21 [doxycycline]
effect of fortifying with 4-epidoxycycline on degradation [4]: reduced degradation of doxycycline during storage | route of doxycycline degradation ([4]; 12 months, 0.025 % w/w): practically all of the degradation of doxycycline at 5 °C was through conversion into 4-epidoxycycline
